Results published in ChEMBL document CHEMBL3046094, “Predicting anti-HIV activity of 1,1,3-trioxo[1,2,4]-thiadiazine (TTD) derivatives: 3D QSAR approach” (Med Chem Res, 2009).

Tested on: Human immunodeficiency virus 1
Test: Antiviral activity against Human immunodeficiency virus 1 infected human MT4 cells assessed as inhibition of virus-induced cytopathic effect by MTT assay
Format: functional, organism-based
Conditions: Human immunodeficiency virus 1, MT4

SMILES | EC50 [nM]
N#CCN1C(=O)N(Cc2cccc(Cl)c2)S(=O)(=O)c2cscc21 | 100
N#CCN1C(=O)N(Cc2cccc(F)c2)S(=O)(=O)c2cscc21 | 300
O=C1N(Cc2ccccc2)c2cscc2S(=O)(=O)N1CCc1ccccc1 | 41400
N#CCN1C(=O)N(Cc2cc(F)cc(F)c2)S(=O)(=O)c2cscc21 | 8600
N#CCN1C(=O)N(Cc2ccccc2)S(=O)(=O)c2cscc21 | 870
O=C1N(Cc2ccccc2)c2cscc2S(=O)(=O)N1Cc1ccccn1 | 200
CN1C(=O)N(Cc2cccc(Cl)c2)S(=O)(=O)c2cscc21 | 2100
CCN1C(=O)N(Cc2ccccc2)S(=O)(=O)c2cscc21 | 2400
CCN1C(=O)N(Cc2ccccn2)S(=O)(=O)c2cscc21 | 1100
CCN1C(=O)N(c2cccc(Cl)c2)S(=O)(=O)c2cscc21 | 61300
CCCN1C(=O)N(Cc2ccccc2)S(=O)(=O)c2cscc21 | 6100
C=CCN1C(=O)N(Cc2ccccc2)S(=O)(=O)c2cscc21 | 6300
N#CCCN1C(=O)N(Cc2ccccc2)S(=O)(=O)c2cscc21 | 4900
O=C1N(c2cccc(Cl)c2)c2cscc2S(=O)(=O)N1Cc1ccccc1 | 1400
O=C1N(c2ccc(Cl)cc2)c2cscc2S(=O)(=O)N1Cc1ccccc1 | 7400
O=C1N(c2ccccc2Cl)c2cscc2S(=O)(=O)N1Cc1ccccc1 | 100
C#CCN1C(=O)N(Cc2ccccc2)S(=O)(=O)c2cscc21 | 960
N#CCN1C(=O)N(CCc2ccccc2)S(=O)(=O)c2cscc21 | 10900
N#CCN1C(=O)N(Cc2ccccn2)S(=O)(=O)c2cscc21 | 400
CCN1C(=O)N(Cc2cccc(Cl)c2)S(=O)(=O)c2cscc21 | 90
O=C1N(Cc2ccccc2)c2cscc2S(=O)(=O)N1Cc1ccccc1 | 2200
C#CCN1C(=O)N(Cc2cccc(Cl)c2)S(=O)(=O)c2cscc21 | 90
N#CCN1C(=O)N(Cc2cccc(Br)c2)S(=O)(=O)c2cscc21 | 50
CCN1C(=O)N(Cc2ccccc2Cl)S(=O)(=O)c2cscc21 | 7600
N#CCN1C(=O)N(Cc2cccnc2)S(=O)(=O)c2cscc21 | 800
CCOC(=O)CN1C(=O)N(Cc2ccccc2)S(=O)(=O)c2cscc21 | 7300
CCN1C(=O)N(CCc2ccccc2)S(=O)(=O)c2cscc21 | 3600
CN1C(=O)N(Cc2ccccc2)S(=O)(=O)c2cscc21 | 2700
